The numbers were not newly measured in patent publication US20240148693A1, “COMPOSITION, PREPARATION METHOD THEREFOR, AND USE THEREOF” (CHANGSHA JINGYI PHARMACEUTICAL TECHNOLOGY CO., LTD, priority 2021, published 2024), which cites them from elsewhere.

Structures are written as SMILES.

The series has as its system synaptic vesicle glycoprotein 2A (SV2A). Particulars: preclinical animal experiments.

Consider `CCC[C@@H]1CC(=O)N([C@@H](CC)C(N)=O)C1` [Brivaracetam], for which the “Affinity for SV2A relative to levetiracetam” value is on record as 15-30 times.
